Experimental data from ChEMBL document CHEMBL5236573, “Development of benzodioxine-heteroarylpiperazines as highly potent and selective α2c antagonists” (Bioorg Med Chem Lett, 2022).
In brackets after ≈: the same amount, converted by molar mass.

Key:
[1] = biological target: T1, Alpha-2A adrenergic receptor (Homo sapiens) (UniProt P08913); assay: Antagonist activity at alpha2a-adrenoceptor (unknown origin) assessed as reduction in adrenaline-induced response by measuring equilibrium binding constant; settings: filed as antagonist
T1 sequence (whole entry): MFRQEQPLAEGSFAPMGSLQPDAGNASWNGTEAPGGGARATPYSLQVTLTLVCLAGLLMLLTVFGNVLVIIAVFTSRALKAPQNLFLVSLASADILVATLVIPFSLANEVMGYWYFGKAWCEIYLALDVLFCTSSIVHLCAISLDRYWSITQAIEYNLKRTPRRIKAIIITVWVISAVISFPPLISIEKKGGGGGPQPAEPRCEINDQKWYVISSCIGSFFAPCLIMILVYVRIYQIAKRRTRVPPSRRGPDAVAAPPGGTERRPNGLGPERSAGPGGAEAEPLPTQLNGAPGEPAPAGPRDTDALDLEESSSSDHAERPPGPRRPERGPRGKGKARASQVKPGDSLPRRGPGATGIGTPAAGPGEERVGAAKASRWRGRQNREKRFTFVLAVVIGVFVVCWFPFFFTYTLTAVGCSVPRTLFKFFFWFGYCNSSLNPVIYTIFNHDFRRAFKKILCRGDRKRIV

Homo sapiens = species on record: Homo sapiens; assay: Selectivity index, ratio of Kb for antagonist activity at alpha2a-adrenoceptor (unknown origin) to Kb for antagonist activity at alpha2c-adrenoceptor (unknown origin)
[2] = biological target: T2, Alpha-2C adrenergic receptor (Homo sapiens) (UniProt P18825); assay: Antagonist activity at alpha2c-adrenoceptor (unknown origin) assessed as reduction in adrenaline-induced response by measuring equilibrium binding constant; settings: filed as antagonist
T2 sequence (whole entry): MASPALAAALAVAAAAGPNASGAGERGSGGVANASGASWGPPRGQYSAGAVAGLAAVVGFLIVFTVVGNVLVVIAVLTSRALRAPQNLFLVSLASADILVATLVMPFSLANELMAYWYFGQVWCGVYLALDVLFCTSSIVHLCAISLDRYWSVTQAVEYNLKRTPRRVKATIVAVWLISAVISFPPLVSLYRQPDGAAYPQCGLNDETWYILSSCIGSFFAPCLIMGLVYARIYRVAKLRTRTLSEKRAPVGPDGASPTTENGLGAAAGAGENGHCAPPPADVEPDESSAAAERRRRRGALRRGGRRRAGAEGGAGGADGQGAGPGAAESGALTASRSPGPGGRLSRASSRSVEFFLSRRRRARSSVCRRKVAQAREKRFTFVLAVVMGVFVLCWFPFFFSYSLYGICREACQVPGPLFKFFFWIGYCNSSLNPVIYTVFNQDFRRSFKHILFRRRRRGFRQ

[3] = Lipophilicity, logD of the compound; type: physicochemical; settings: octanol/water
[4] = Efflux ratio of permeability across basolateral to apical side over apical to basolateral side in human Caco-2 cells; type: ADME, cell-based
[5] = Metabolic stability in rat hepatocytes assessed as clearance per 10^6 cells at 1 uM; type: ADME, cell-based, Hepatocyte; settings: read-out: CLH
[6] = Permeability across apical to basolateral side in human Caco-2 cells; type: ADME, cell-based; settings: read-out: permeability
[7] = Permeability across basolateral to apical side in human Caco-2 cells; type: ADME, cell-based; settings: read-out: permeability
[8] = Metabolic stability in human hepatocytes assessed as clearance per 10^6 cells at 1 uM; type: ADME, cell-based, Hepatocyte; settings: read-out: CLH
[9] = Solubility of the compound in pH 7.4 buffer; type: physicochemical
[10] = AUC (0 to 6 hrs) in rat plasma at 1 mg/kg, po; type: ADME, organism-based; design: dose 1 mg/kg, route po
[11] = Unbound fraction in rat plasma at 1 mg/kg, po; type: ADME, organism-based
[12] = Unbound Cmax in rat brain at 1 mg/kg, po by rapid equilibrium dialysis method; type: ADME, organism-based; settings: in vivo
[13] = AUC (0 to 6 hrs) in rat brain at 1 mg/kg, po; type: ADME, organism-based; design: dose 1 mg/kg, route po
[14] = Unbound fraction in rat brain at 1 mg/kg, po; type: ADME, organism-based
[15] = Unbound Cmax in rat plasma at 1 mg/kg, po by rapid equilibrium dialysis method; type: ADME, organism-based; settings: in vivo
[16] = Tmax in rat plasma at 1 mg/kg, po; type: ADME, organism-based
[17] = Cmax in rat brain at 1 mg/kg, po; type: ADME, organism-based; design: dose 1 mg/kg, route po
[18] = Cmax in rat plasma at 1 mg/kg, po; type: ADME, organism-based; design: dose 1 mg/kg, route po
[19] = Unbound brain-to-plasma concentration ratio in rat at 1 mg/kg, po; type: ADME, organism-based; settings: brain and plasma, read-out: K(p,uu,brain)
[20] = Tmax in rat brain at 1 mg/kg, po; type: ADME, organism-based

SMILES	Kb [1] [nM]	Ratio (Homo sapiens)	Kb [2] [nM]	logD [3]	hepatocyte CLint at 1 µM [5] [µL/min/1e6 cells]	hepatocyte CLint at 1 µM [8] [µL/min/1e6 cells]	solubility [9] [µM]	further results
CN1CCN(c2nsnc2N2CCN(C[C@H]3COc4ccccc4O3)CC2)C1=O	449	4.15	108					
O=C1CCCN1c1ncsc1N1CCN(C[C@H]2COc3ccccc3O2)CC1	317	7940	0.04	1.9	5	3.6	1130 (≈ 451 µg/mL)	efflux ratio [4]: 0.6; Papp A→B [6]: 42.4 ×10⁻⁶ cm/s; Papp B→A [7]: 24.3 ×10⁻⁶ cm/s
COc1scnc1N1CCN(C[C@H]2COc3ccccc3O2)CC1	88.3	8830	0.01	2.3	54.4	14.3	445 (≈ 155 µg/mL)	
Oc1cccc([C@H]2CCCN(C[C@H]3COc4ccccc4O3)C2)c1								AUC(0-t) [10]: 9 ng·h/mL; fraction unbound [11]: < 0.01; fCmax [12]: < 0.09 nM; AUC(0-t) [13]: 14 ng·h/mL; fraction unbound [14]: < 0.01; fCmax [15]: < 0.06 nM
O=C1CCCN1c1cccnc1N1CCN(C[C@H]2COc3ccccc3O2)CC1	44.9	4490	0.01					
O=C1CCCN1c1nsnc1N1CCN(C[C@H]2COc3ccccc3O2)CC1	282	5380	0.05	2.2	16.2	8.2	822 (≈ 330 µg/mL)	AUC(0-t) [10]: 189 ng·h/mL; fraction unbound [11]: 0.185; fCmax [12]: 26 nM; Tmax [16]: 15 min; efflux ratio [4]: 0.6; Cmax [17]: 101 ng/g; Papp A→B [6]: 73.6 ×10⁻⁶ cm/s; AUC(0-t) [13]: 140 ng·h/mL; fraction unbound [14]: 0.104; Cmax [18]: 113 ng/mL; Kp uu [19]: 0.45; Papp B→A [7]: 44.3 ×10⁻⁶ cm/s; Tmax [20]: 15 min; fCmax [15]: 52 nM
COCc1cccnc1N1CCN(C[C@H]2COc3ccccc3O2)CC1 [ORM-13070]	130	4330	0.03	3.3			176 (≈ 62.6 µg/mL)	
CC1CCN(c2nsnc2N2CCN(C[C@H]3COc4ccccc4O3)CC2)C1=O (stereo not given in full)	449	11200	0.04	2.8	73.7	6.3	395 (≈ 164 µg/mL)	
c1ccc2c(c1)OC[C@H](CN1CCN(c3nsnc3Nc3ccncn3)CC1)O2	459	45900	0.01		29.3	14.2		
CC1(C)CCN(c2nsnc2N2CCN(C[C@H]3COc4ccccc4O3)CC2)C1=O	449	44900	0.01	3.1	128	18.1	133 (≈ 57.1 µg/mL)	
O=C1NCCN1c1nsnc1N1CCN(C[C@H]2COc3ccccc3O2)CC1	449	5930	0.076		1.8	1.8		
Cc1c(N2CCNC2=O)c(N2CCN(C[C@H]3COc4ccccc4O3)CC2)nn1C	449	7480	0.06		1.8	1.8	114 (≈ 47 µg/mL)	efflux ratio [4]: 7.5; Papp A→B [6]: 2.9 ×10⁻⁶ cm/s; Papp B→A [7]: 21.4 ×10⁻⁶ cm/s
CN(C)C(=O)c1nsnc1N1CCN(C[C@H]2COc3ccccc3O2)CC1	449	4990	0.09	2.5	30	1.75	719 (≈ 280 µg/mL)	
